This passage reports IC50 results from patent publication US9988397B2, “ERK inhibitors” (Merck Sharp & Dohme Corp., priority 2014, dated 2018).

For the assay, the target named is phosphorylated active hERK2 enzyme (Homo sapiens, UniProt P28482). Put plainly: Active human ERK2 (hERK2) Activity Assay (IMAP-FP). In kind it is biochemical. Conditions: 10 point titration, 3 μM starting concentration, 0.5 nM hERK2, 30 μM ATP, 60 minutes reaction.

Molecules are shown by their SMILES.

Sequence of phosphorylated active hERK2 enzyme (P28482 whole entry): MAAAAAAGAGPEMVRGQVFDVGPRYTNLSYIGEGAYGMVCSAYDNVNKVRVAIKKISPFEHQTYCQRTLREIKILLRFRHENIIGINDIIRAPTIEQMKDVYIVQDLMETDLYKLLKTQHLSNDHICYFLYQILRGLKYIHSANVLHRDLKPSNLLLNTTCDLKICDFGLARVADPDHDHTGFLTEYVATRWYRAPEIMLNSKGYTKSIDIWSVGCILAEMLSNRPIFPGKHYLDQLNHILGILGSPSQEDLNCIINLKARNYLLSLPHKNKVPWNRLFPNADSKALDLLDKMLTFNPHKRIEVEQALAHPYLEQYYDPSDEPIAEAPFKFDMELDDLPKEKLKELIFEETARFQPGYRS
Procedure: Activated ERK2 activity was determined in an IMAP-FP assay (Molecular Devices). Using this assay format, the potency (IC50) of each compound was determined from a 10 point (1:3 serial dilution, 3 μM starting compound concentration) titration curve using the following outlined procedure. […] Following a 15 minute compound & enzyme incubation, each reaction was initiated by the addition of 10 μL kinase buffer containing 2.45 μM ERK2 IMAP substrate peptides and 75 μM ATP. The final reaction in each well of 25 μL consists of 0.5 nM hERK2, 900 nM unlabeled peptide, 80 nM labeled-peptide, and 30 μM ATP. Phosphorylation reactions were allowed to proceed for 60 minutes and were immediately quenched by the addition of 60 μL IMAP detection beads (1:1000 dilutions) in IMAP binding buffer (Molecular Devices) with 24 mM NaCl. Plates were read on EnVision reader after 60 minutes binding equilibration using Fluorescence Polarization protocol (Perkin Elmer).

On to `Cn1ncc2cc3nc(c21)OCCOC[C@H](c1ccccc1)NC(=O)N3` [Example 29, (9S)-1-methyl-9-phenyl-1,6,9,10,12,13-hexahydro-5,15-(azeno)pyrazolo[4,3-i][1,12,4,6]dioxadiazacyclotetradecin-7(8H)-one], for which the IC50 (in general, the concentration that inhibits the measured activity by half) was determined as 49.2 nM.

Take `Cn1ncc2cc3nc(c21)OCCC[C@@H](O)[C@H](c1ccccc1)NC(=O)N3` [Example 24, (9S,10R)-10-Hydroxy-1-methyl-9-phenyl-1,6,8,9,10,11,12,13-octahydro-7H-5,15-(azeno)pyrazolo[3,4-c][1,7,9]oxadiazacyclotetradecin-7-one]: the midpoint of inhibition, the IC50, lay at 190 nM.

`Cc1cc(-n2ncc3cc4nc(c32)Cn2cc(nn2)CC(c2ccccc2)NC(=O)N4)ccn1` (single isomer, unassigned) [Example 38, 1-(2-Methylpyridin-4-yl)-9-phenyl-1,6,9,10-tetrahydro-5,16-(azeno)-14,11-(metheno)pyrazolo[4,3-l][1,2,3,7,9]pentaazacyclopentadecin-7(8H,15H)-one] had an IC50 of 87.3 nM.

In turn, `CCn1ncc2cc3nc(c21)OCCC[C@H](O)[C@H](c1ccccc1)NC(=O)N3` [Example 25, (9S,10S)-1-Ethyl-10-hydroxy-9-phenyl-1,6,8,9,10,11,12,13-octahydro-7H-5,15-(azeno)pyrazolo[3,4-c][1,7,9]oxadiazacyclotetradecin-7-one] came in with a half-maximal inhibitory concentration (IC50) of 24.3 nM.

Take `Cn1ncc2cc3nc(c21)NCCOC[C@H](c1ccccc1)NC(=O)N3` [Example 22, (9 S)-1-Methyl-9-phenyl-1,6,9,10,13,14-hexahydro-12H-5,15-(azeno)pyrazolo[4,3-i][1,4,6,12]oxatriazacyclotetradecin-7(8 H)-one]: half-maximal inhibition (IC50) required 7.91 nM.

Regarding `CCn1ncc2cc3nc(c21)C[C@@H](O)COC[C@H](c1ccc(Cl)c(F)c1)NC(=O)N3` [Example 53, (9S,13R)-1-Ethyl-9-(4-chloro-3-fluorophenyl)-13-hydroxy-1,6,9,10,13,14-hexahydro-12H-5,15-(azeno)pyrazolo[4,3-i][1,4,6]oxadiazacyclotetradecin-7(8H)-one], it took 3.91 nM to reach half-maximal inhibition (IC50).

Compound `CCn1ncc2cc3nc(c21)C[C@H](O)COC[C@H](c1ccc(OC)c(F)c1)NC(=O)N3` [Example 50, (9S,13S)-1-Ethyl-9-(3-fluoro-4-methoxyphenyl)-13-hydroxy-1,6,9,10,13,14-hexahydro-12H-5,15-(azeno)pyrazolo[4,3-i][1,4,6]oxadiazacyclotetradecin-7(8H)-one] yielded a half-inhibitory concentration (IC50) of 6.28 nM. This IC50 is about 1.6-fold higher than that of the compound before.

As for `CCn1ncc2cc3nc(c21)C[C@@H](OC)COC[C@@H](c1ccccc1)NC(=O)N3` (stereo in doubt) [Example 44, (9R,13R)-1-Ethyl-13-methoxy-9-phenyl-1,6,9,10,13,14-hexahydro-12H-5,15-(azeno)pyrazolo[4,3-i][1,4,6]oxadiazacyclotetradecin-7(8H)-one], the IC50 worked out at 32.8 nM.

Compound `Cn1ncc2cc3nc(c21)OCCC[C@H](O)[C@H](c1ccccc1)NC(=O)N3` [Example 23, (9S,10S)-10-Hydroxy-1-methyl-9-phenyl-1,6,8,9,10,11,12,13-octahydro-7H-5,15-(azeno)pyrazolo[3,4-c][1,7,9]oxadiazacyclotetradecin-7-one] displayed an IC50 of 45.1 nM.

In turn, `O=C1Nc2cc3cnn(C(F)F)c3c(n2)CCCOC[C@H](c2ccccc2)N1` [Example 9, (9S)-1-(Difluoromethyl)-9-phenyl-1,6,9,10,13,14-hexahydro-12H-5,15-(azeno)pyrazolo[4,3-i][1,4,6]oxadiazacyclotetradecin-7(8H)-one] yielded an IC50 of 12.5 nM.

`Cn1ncc2cc3nc(c21)CCCOC[C@H](c1ccccc1)NC(=O)N3` [Example 2, (9S)-1-Methyl-9-phenyl-1,6,9,10,13,14-hexahydro-12H-5,15-(azeno)pyrazolo[4,3-i][1,4,6]oxadiazacyclotetradecin-7(8H)-one] returned an IC50 of 10.2 nM.
